Laboratory results reported in patent US11819492B2, “Natural product derivatives for inhibiting cellular necroptosis, ferroptosis and oxytosis” (Institut National de la Sante et de la Recherche Medicale …, priority 2016, dated 2023).

What was measured:
[1] = system: Jurkat FADD-deficient I 2.1 cells; experiment: Hallmarks of TNF-α-induced necroptosis (plasma membrane permeabilization, intracellular ATP) in Jurkat FADD-deficient cells; format: cell-based, human; conditions: 0-50 μM, TNF-α 10 ng/ml, 24 hours
Method: Cells untreated by TNF-α are used as control (light grey curves). Cells were incubated at 37° C., 5% CO2 for 24 hours before performing the measurements of both plasma membrane permeabilization and intracellular ATP levels. Dead cells were detected by FACS analysis of Propidium Iodide-stained nuclei (FIG. 2). ATP Quantification is performed using the CellTiter-Glo® Luminescent Cell Viability Assay. The luminescent signal produced by a luciferase reaction is proportional to the amount of ATP present and the amount of ATP is directly proportional to the number of metabolically active cells (n=4) (FIG. 3).

[2] = molecular target: T1, Human RIPK1 full length GST-tagged (Homo sapiens, UniProt Q13546); experiment: RIPK1 autophosphorylation assay; format: biochemical
T1 construct: Human RIPK1 full length GST-tagged; made in house; host or cells: Sf9 insect cells (baculovirus, Bac-to-Bac)
T1 sequence (Q13546 1-671): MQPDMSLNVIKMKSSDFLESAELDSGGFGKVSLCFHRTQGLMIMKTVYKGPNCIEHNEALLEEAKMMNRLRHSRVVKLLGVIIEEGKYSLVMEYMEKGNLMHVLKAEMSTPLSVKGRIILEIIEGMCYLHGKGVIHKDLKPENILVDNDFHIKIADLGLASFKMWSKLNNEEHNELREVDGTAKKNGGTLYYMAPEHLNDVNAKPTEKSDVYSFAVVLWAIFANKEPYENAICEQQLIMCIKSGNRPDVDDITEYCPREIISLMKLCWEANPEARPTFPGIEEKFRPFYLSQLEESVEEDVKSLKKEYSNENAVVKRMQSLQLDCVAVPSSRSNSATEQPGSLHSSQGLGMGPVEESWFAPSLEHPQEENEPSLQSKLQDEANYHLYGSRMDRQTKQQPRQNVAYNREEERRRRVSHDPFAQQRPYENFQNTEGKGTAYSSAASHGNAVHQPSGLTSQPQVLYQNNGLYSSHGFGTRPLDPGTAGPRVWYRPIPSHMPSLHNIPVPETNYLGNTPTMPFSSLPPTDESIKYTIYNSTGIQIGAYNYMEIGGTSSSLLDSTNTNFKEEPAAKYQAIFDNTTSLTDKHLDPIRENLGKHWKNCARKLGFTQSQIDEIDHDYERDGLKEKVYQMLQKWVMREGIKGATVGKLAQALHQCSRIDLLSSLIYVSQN
Method: RIPK1 Autophosphorylation Assay: • Human RIPK1 full length GST-tagged was baculovirally expressed in Sf9 cells according to manufacturer's instructions (Bac-to-Bac expression system, Invitrogen) and purified using gluthation-sepharose beads (GE Healthcare). The elution was made in 50 mM Tris-HCl, pH 8.0 buffer supplemented with 30 mM reduced gluthathione (Sigma). The protocol used to detect the enzymatic activity is adapted from Miao and Degterev (Methods Mol. Biol. 2009, 559, 79-93). Kinase reaction was initiated mixing 5 μl of eluted RIPK1, 5 μl of 3X kinase reaction buffer (5 mM MOPS pH 7.2, 2.5 mM β-glycerophosphate, 4 mM MgCl2, 2.5 mM MnCl2, 1 mM EGTA, 0.4 mM EDTA, 50 μg/ml BSA, 0.05 mM DTT), 2 μl H2O and 3 μl of the tested molecule. The mixture was kept on ice for 10 minutes. […] ATP. The ATP solution and the tested inhibitor were added to the kinase and incubated for 30 minutes at 30° C. To stop the enzymatic reaction, 5 μl of loading buffer were added and solution was heated for 3 minutes at 95° C. 25 μl of each reaction were loaded per well in pre-cast NuPage 12% Bis-Tris gel (Life Technology). Necrostatin-1, a well-described inhibitor of RIPK1, was used as an internal control. Coomassie staining was performed in order to estimate the total amount of protein loaded on polyacrylamide gel. […]

[3] = system: 456 kinases, including eight lipid kinases; experiment: KINOMEscan Max competition binding assay, profiling against 456 kinases; parameters: species or system human; conditions: poor affinity = over 30% of kinase still on the affinity matrix, FIG. 8
Method: (§1) This experimental approach quantitatively measures the ability of a compound to compete with an immobilized, active-site directed ligand. […] The ability of compound 1 to compete with the immobilized ligand is measured via quantitative PCR of the DNA tag. The codes reported on the FIG. 8 indicate the subclasses of protein kinases: CMGC for CDKs, MAP kinases, GSK and CDK-like kinases; AGC for Protein kinase A, G, and C families (PKA, PKC, PKG); CAMK for Ca2+/calmodulin-dependent protein kinases; CK1, Cell Kinases 1 (originally known as Casein Kinase 1); STE, STE Kinases (Homologs of yeast STErile kinases); TKL, Tyrosine Kinases-Like; TK, Tyrosine Kinases. Each kinase tested in the assay panel is marked with a circle. The hit kinase reported, RIPK1, is marked with a black circle.

[4] = system: Human retinal pigment epithelial cell line, ARPE-19; experiment: NaIO3-induced retinal cell death (cellular model of AMD), MTS viability assay; format: cell-based; conditions: subtoxic concentration (+/−20 μM), 10 mM NaIO3, 24 hours, P<0.001
Method: At it was previously shown (Hanus et al. Cell Death Discov. 2016, 2, 16054), NaIO3 is an oxidizing agent that induces necroptosis in retinal pigment epithelial cell line that can be inhibited by 200 μM of necrostatin-1. […] Human retinal pigment epithelial cell line, ARPE-19, was treated with 10 mM of NaIO3 as cellular model of age-related macular degeneration (AMD). […] Cells were then incubated at 37° C., 5% CO2 for 24 hours before performing MTS viability assay. Cell viability was monitored using CellTiter 96® AQueous Non-Radioactive Cell Proliferation Assay (Promega, Fitchburg, WI, USA), based on the water-soluble tetrazolium compound MTS (3-[4,5-dimethylthiazol-2-yl]-5-[3-carboxymethoxy-phenyl]-2-[4-sulfophenyl]-2H-tetrazolium, inner salt) according to the manufacturers instructions.

RIPK1 = molecular target: T2, RIPK1 (Homo sapiens, UniProt Q13546); experiment: KINOMEscan Max competition binding assay, RIPK1; conditions: RIPK1, FIG. 8
T2 construct: DNA tag (qPCR read-out); purchased DiscoveRx Corporation, Fremont, USA (assay service)
T2 sequence (Q13546 1-671): T1 sequence (Q13546 1-671)
Method: as §1

[5] = system: rat embryonic myoblastic H9C2 cells; experiment: H2O2-induced necrosis, LDH release assay; format: cell-based; conditions: 10 μM, 2 hours pretreatment, 800 μM H2O2 for 24 hours, FIG. 17
Method: The rat embryonic myoblastic H9C2 cells were cultured at 10,000 cells/well in 96-well-plates for 24 hours at 37° C./5% CO2. […] LB corresponds to cells treated with a lysis buffer (100% of cell death). Cell cytotoxicity was determined by a colorimetric assay quantitatively measuring lactate dehydrogenase (LDH) released […].

effect of high ATP concentrations on inhibition of RIPK1 auto-phosphorylation ([2]; high ATP concentrations (e.g. 1 mM), FIG. 7): not affected
specificity for RIPK1 among the large panel of tested kinases [3]: high specificity
initial amount of kinase still on the affinity matrix after competition (RIPK1): 0.15%
SMILES: COc1cc(O)c2c(c1)OC(O)(c1ccc(OCc3ccccc3)cc1)CC2=O (centres unmarked) [compound 1]
plasma membrane permeabilization induced by TNF-α (Propidium Iodide, FACS) ([1]; FIG. 2): inhibits
ATP depletion induced by TNF-α (CellTiter-Glo) ([1]; FIG. 3): inhibits
inhibition of RIPK1 autophosphorylation ([2]; [γ-32P] ATP, 30 minutes at 30° C., FIG. 6): inhibits the RIPK1 autophosphorylation in a dose-dependent way
protection from death induced by NaIO3 [4]: protects significantly
protection from death induced by H2O2 (LDH release) [5]: protects from death induced by H2O2
